Measurements published in article PMC6155365, “A Phase 3 Study of Micafungin Versus Amphotericin B Deoxycholate in Infants With Invasive Candidiasis” (The Pediatric Infectious Disease Journal, 2018).
≈ marks a conversion by molar mass, not a printed value.

Key:
[1] = tested on: C. glabrata; assay: In vitro susceptibility MIC, CLSI M27-A3; format: cell-based, Candida glabrata; conditions: Nakaseomyces glabratus; baseline isolate, persistent infection in AmB-D group
Experimental: (§1) All fungal isolates were identified to the genus and species level using standard techniques. Briefly, each isolate was subcultured in CHROMagar Candida (Becton Dickinson and Company, Sparks, MD) and molecular identification by sequencing of the internal transcribed spacer region and/or 28S ribosomal subunit. In vitro susceptibility testing was performed on all fungal isolates collected during the study to calculate the minimum inhibitory concentrations (MICs) according to Clinical Laboratory Standards Institutes (CLSI) methodology (M27-A3) and European Committee on Antimicrobial Susceptibility Testing (EUCAST) methodology (EDef7.1).[24],[25]

[2] = Clinical laboratory test findings, safety analysis set; format: in vivo, infants; conditions: postbaseline increase from baseline
[3] = Adverse events, safety analysis set
[4] = tested on: C. albicans; assay: In vitro susceptibility MIC, CLSI M27-A3; format: cell-based; conditions: Candida albicans
Experimental: as §1

[5] = tested on: C. albicans; assay: In vitro susceptibility MIC, EUCAST EDef7.1; format: cell-based, Candida albicans; conditions: for MIC: Candida albicans
Experimental: as §1

[6] = tested on: Candida spp. (invasive candidiasis); assay: Phase 3 randomized double-blind study, efficacy in infants with proven invasive candidiasis (NCT00815516); format: in vivo
Experimental: This was a phase 3, randomized, double-blind, multicenter, parallel-group, noninferiority study (ClinicalTrials.gov identifier: […] The follow-up was performed to capture emergent and recurrent fungal infections, to obtain a final safety evaluation and to check for resolution of those IC episodes that had not resolved by the end of treatment. […] An independent Data Review Panel reviewed and confirmed the diagnosis of IC and evaluated the efficacy outcome for each subject. Drug safety was evaluated by an unblinded Data Safety and Monitoring Board. […] FFS was defined as an infant alive and fungal free with no requirement for continued treatment with alternative antifungal therapy. […] Responses were defined as follows: complete response (resolution of all attributable signs related to fungal infection); partial response (improvement in attributable signs related to the fungal infection); stabilization (minor improvement or no change in attributable signs related to the fungal infection and the infant continued on therapy without deterioration); progression (deterioration in attributable signs related to the fungal infection or death presumably related to fungal infection). […] Persistence was defined by continued isolation or histologic documentation from a normally sterile site. […] Following positive Candida cultures, end-organ dissemination was assessed using abdominal ultrasound and/or computed tomography scanning, echocardiogram, head imaging with ultrasound, magnetic resonance imaging or computed tomography scanning or ophthalmoscopy. An emergent fungal infection was defined as a non-Candida invasive fungal infection detected at any time during the study or any invasive fungal infection detected >96 hours postbaseline involving a Candida spp. other than those detected at baseline.

[7] = in vivo
[8] = tested on: C. glabrata; assay: In vitro susceptibility MIC, EUCAST EDef7.1; format: cell-based, Candida glabrata; conditions: Nakaseomyces glabratus; baseline isolate, persistent infection in AmB-D group
Experimental: as §1

[9] = irrespective of relatedness to study drug
[10] = possible or probable, as assessed by the investigator
[11] = 216 h, follow-up cultures on day 9, AmB-D group infant
[12] = baseline isolate, persistent infection in AmB-D group

C[C@@H]1[C@H](O)[C@@H](C)/C=C/C=C/C=C/C=C/C=C/C=C/C=C/[C@H](O[C@@H]2O[C@H](C)[C@@H](O)[C@H](N)[C@@H]2O)C[C@@H]2O[C@](O)(C[C@@H](O)C[C@@H](O)[C@H](O)CC[C@@H](O)C[C@@H](O)CC(=O)O[C@H]1C)C[C@H](O)[C@H]2C(=O)O [AmB-D, Amphotericin B deoxycholate]
MIC [1]: 1 µg/mL (≈ 1.08 µM)
Serum creatinine increase >100% [2]: 0 n/N (%)
Early discontinuation of treatment: AEs ([3]; MCA n = 20, AmB-D n = 10): 3 (30%) n (%)
Electrolyte supplementation received ([3]; MCA n = 20, AmB-D n = 10): 5 (50%) n (%)
TEAEs: Blood and lymphatic system disorders ([3]; MedDRA system organ class): 6 (60) n (%)
TEAEs: General disorders and administration site conditions ([3]; MedDRA system organ class): 5 (50) n (%)
TEAEs: Investigations ([3]; MedDRA system organ class): 3 (30) n (%)
TEAEs: Metabolism and nutrition disorders ([3]; MedDRA system organ class): 2 (20) n (%)
TEAEs: Respiratory, thoracic and mediastinal disorders ([3]; MedDRA system organ class): 3 (30) n (%)
TEAEs: Skin and subcutaneous tissue disorders ([3]; MedDRA system organ class): 2 (20) n (%)
TEAEs: Vascular disorders ([3]; MedDRA system organ class): 3 (30) n (%)
Deaths ([3]; all deaths reported from the study): 1 (10) n (%)
Magnesium supplementation ([3]; in vivo): 2 (20%) n (%)
Potassium supplementation ([3]; in vivo): 3 (30%) n (%)
TEAE anemia [3, 9]: 3 (30%) n (%)
TEAE thrombocytopenia [3, 9]: 3 (30%) n (%)
Drug-related TEAEs [3, 10]: 5 (50) n (%)
Drug-related TEAEs leading to death [3, 10]: 0 n (%)
Drug-related serious TEAEs [3, 10]: 1 (10) n (%)
Serious TEAEs ([3]; safety analysis set): 7 (70) n (%)
TEAEs ([3]; safety analysis set, MCA N = 20 (10 mg/kg/d), AmB-D N = 10 (1 mg/kg/d)): 9 (90) n (%)
MIC [4, 11]: 1 µg/mL (≈ 1.08 µM)
MIC [4, 12]: 1 µg/mL (≈ 1.08 µM)
MIC [5, 11]: 0.25 µg/mL (≈ 0.271 µM)
MIC [5, 12]: 0.5 µg/mL (≈ 0.541 µM)
MIC, EUCAST ([5]; follow-up cultures on day 9, AmB-D group infant): 0.5 µg/mL (≈ 0.541 µM)
Early discontinuation of treatment: lack of efficacy ([6]; MCA n = 20, AmB-D n = 10): 1 (10%) n (%)
Clinical response: Partial ([6]; at 1 week after last dose of study drug, infants with signs at baseline): 0 n/N (%)
Positive clinical response ([6]; at end of study and 1 week after last dose, infants with signs at baseline (MCA 18, AmB-D 10)): 70%
Infants alive at 1 week after last dose but not fungal free ([6]; did not meet primary efficacy end point, MCA n = 20, AmB-D n = 10): 2 (20%) n (%)
Clinical response: Partial ([6]; end of study (30 days after last dose)): 0 n/N (%)
Emergent fungal infections through end of study ([6]; full analysis set): 0 n/N (%)
TEAEs: Infections and infestations [7]: 3 (30) n (%)
MIC [8]: 0.5 µg/mL (≈ 0.541 µM)
